Columns and labels:
[1] = target: Casein kinase I isoform delta (Homo sapiens) (UniProt P48730); assay: Inhibition of CK1delta at 1 uM
[2] = target: Serine/threonine-protein kinase Nek4 (Homo sapiens) (UniProt P51957); assay: Inhibition of NEK4 at 1 uM
[3] = target: Dual specificity protein kinase CLK1 (Homo sapiens) (UniProt P49759); assay: Inhibition of CLK1 at 1 uM
[4] = target: Serine/threonine-protein kinase PLK2 (Homo sapiens) (UniProt Q9NYY3); assay: Inhibition of PLK2 at 1 uM
[5] = target: Serine/threonine-protein kinase Sgk1 (Homo sapiens) (UniProt O00141); assay: Inhibition of SGK1 at 1 uM
[6] = target: Activin receptor type-1B (Homo sapiens) (UniProt P36896); assay: Inhibition of ALK4 at 1 uM
[7] = target: Vascular endothelial growth factor receptor 2 (Homo sapiens) (UniProt P35968); assay: Inhibition of VEGFR2 at 1 uM
[8] = target: Aurora kinase C (Homo sapiens) (UniProt Q9UQB9); assay: Inhibition of Aurora C at 1 uM
[9] = target: Fibroblast growth factor receptor 1 (Homo sapiens) (UniProt P11362); assay: Inhibition of FGFR1 at 1 uM
[10] = target: Aurora kinase B (Homo sapiens, UniProt Q96GD4); assay: Inhibition of Aurora B in human HCT116 cells assessed as complete loss of phospho-histone H3 staining by immunofluorescence assay
[11] = target: Serine/threonine-protein kinase Nek1 (Homo sapiens) (UniProt Q96PY6); assay: Inhibition of NEK1 at 1 uM
[12] = target: Mitogen-activated protein kinase kinase kinase 9 (Homo sapiens) (UniProt P80192); assay: Inhibition of MLK1 at 1 uM
[13] = target: Serine/threonine-protein kinase Nek2 (Homo sapiens) (UniProt P51955); assay: Inhibition of NEK2 at 1 uM
[14] = target: Serine/threonine-protein kinase pim-1 (Homo sapiens) (UniProt P11309); assay: Inhibition of PIM1 at 1 uM
[15] = target: Tyrosine-protein kinase BTK (Homo sapiens) (UniProt Q06187); assay: Inhibition of BTK at 1 uM
[16] = target: Aurora kinase B (Homo sapiens, UniProt Q96GD4, E161T); assay: Inhibition of N-terminal flag-tagged Aurora B E161T mutant expressed in Escherichia coli BL21-DE3
[17] = target: Ribosomal protein S6 kinase alpha-1 (Homo sapiens) (UniProt Q15418); assay: Inhibition of RSK1 at 1 uM
[18] = target: Phosphorylase b kinase gamma catalytic chain, skeletal muscle/heart isoform (Homo sapiens) (UniProt Q16816); assay: Inhibition of PHKG1 at 1 uM
[19] = target: Dual specificity mitogen-activated protein kinase kinase 1 (Homo sapiens) (UniProt Q02750); assay: Inhibition of MEK1 at 1 uM
[20] = target: Proto-oncogene tyrosine-protein kinase Src (Homo sapiens) (UniProt P12931); assay: Inhibition of SRC at 1 uM
[21] = target: Ribosomal protein S6 kinase beta-1 (Homo sapiens) (UniProt P23443); assay: Inhibition of p70S6K at 1 uM
[22] = target: Receptor tyrosine-protein kinase erbB-2 (Homo sapiens) (UniProt P04626); assay: Inhibition of HER2 at 1 uM
[23] = target: Calcium/calmodulin-dependent protein kinase type II subunit alpha (Homo sapiens) (UniProt Q9UQM7); assay: Inhibition of CaMK2alpha at 1 uM
[24] = target: Platelet-derived growth factor receptor alpha (Homo sapiens) (UniProt P16234); assay: Inhibition of PDGFRA at 1 uM
[25] = target: Cyclin-dependent kinase 5/CDK5 activator 1 (Homo sapiens) (UniProt Q00535+Q15078); assay: Inhibition of CDK5/p25 at 1 uM; assay type: protein-complex assay
[26] = target: Serine/threonine-protein kinase PAK 3 (Homo sapiens) (UniProt O75914); assay: Inhibition of PAK3 at 1 uM
[27] = target: Cytoplasmic tyrosine-protein kinase BMX (Homo sapiens) (UniProt P51813); assay: Inhibition of BMX at 1 uM
[28] = target: High affinity nerve growth factor receptor (Homo sapiens) (UniProt P04629); assay: Inhibition of TRKA at 1 uM
[29] = target: Serine/threonine-protein kinase Chk2 (Homo sapiens) (UniProt O96017); assay: Inhibition of CHK2 at 1 uM
[30] = target: Tyrosine-protein kinase JAK2 (Homo sapiens) (UniProt O60674); assay: Inhibition of JAK2 at 1 uM
Tyrosine-protein kinase JAK2 (Homo sapiens), sequence (O60674 whole entry): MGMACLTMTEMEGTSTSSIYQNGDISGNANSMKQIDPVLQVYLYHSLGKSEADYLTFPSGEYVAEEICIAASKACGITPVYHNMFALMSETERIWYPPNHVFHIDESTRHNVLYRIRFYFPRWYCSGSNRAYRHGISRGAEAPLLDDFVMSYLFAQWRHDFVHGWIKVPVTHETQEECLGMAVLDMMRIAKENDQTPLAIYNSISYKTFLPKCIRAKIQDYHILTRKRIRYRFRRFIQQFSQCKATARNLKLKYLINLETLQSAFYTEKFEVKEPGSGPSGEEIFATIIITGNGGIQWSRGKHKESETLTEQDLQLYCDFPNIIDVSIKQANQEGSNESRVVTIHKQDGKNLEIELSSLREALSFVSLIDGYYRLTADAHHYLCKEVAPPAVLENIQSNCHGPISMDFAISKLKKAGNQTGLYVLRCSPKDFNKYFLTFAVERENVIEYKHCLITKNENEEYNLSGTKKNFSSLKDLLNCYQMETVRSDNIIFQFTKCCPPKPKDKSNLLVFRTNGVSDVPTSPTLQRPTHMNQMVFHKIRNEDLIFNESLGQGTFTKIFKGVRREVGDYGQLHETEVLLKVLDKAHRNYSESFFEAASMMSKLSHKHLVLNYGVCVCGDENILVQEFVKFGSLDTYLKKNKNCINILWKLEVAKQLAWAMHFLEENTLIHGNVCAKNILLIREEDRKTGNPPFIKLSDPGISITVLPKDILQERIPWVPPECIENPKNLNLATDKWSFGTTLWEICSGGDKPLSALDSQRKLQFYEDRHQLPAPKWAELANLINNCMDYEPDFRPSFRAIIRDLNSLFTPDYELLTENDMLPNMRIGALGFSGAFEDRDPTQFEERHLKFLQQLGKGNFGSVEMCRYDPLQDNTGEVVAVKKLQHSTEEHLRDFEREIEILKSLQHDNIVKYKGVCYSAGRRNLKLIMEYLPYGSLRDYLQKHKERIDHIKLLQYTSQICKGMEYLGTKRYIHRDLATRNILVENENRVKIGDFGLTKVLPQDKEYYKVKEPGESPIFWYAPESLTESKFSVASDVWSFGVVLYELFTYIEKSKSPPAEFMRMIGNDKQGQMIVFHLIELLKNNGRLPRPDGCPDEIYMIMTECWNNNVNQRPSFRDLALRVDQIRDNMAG

Dual specificity mitogen-activated protein kinase kinase 1 (Homo sapiens), sequence (Q02750 whole entry): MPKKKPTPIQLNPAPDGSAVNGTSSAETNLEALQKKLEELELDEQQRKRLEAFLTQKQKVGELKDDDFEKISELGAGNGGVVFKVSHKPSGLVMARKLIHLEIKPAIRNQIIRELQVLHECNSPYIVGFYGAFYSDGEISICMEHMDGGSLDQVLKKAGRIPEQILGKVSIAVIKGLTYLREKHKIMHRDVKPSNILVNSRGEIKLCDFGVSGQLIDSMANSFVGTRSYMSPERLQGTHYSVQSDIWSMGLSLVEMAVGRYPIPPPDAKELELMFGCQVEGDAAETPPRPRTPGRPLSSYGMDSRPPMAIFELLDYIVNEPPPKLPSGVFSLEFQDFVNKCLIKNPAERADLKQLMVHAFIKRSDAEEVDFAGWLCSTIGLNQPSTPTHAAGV
Ribosomal protein S6 kinase alpha-1 (Homo sapiens), sequence (Q15418 whole entry, canonical isoform): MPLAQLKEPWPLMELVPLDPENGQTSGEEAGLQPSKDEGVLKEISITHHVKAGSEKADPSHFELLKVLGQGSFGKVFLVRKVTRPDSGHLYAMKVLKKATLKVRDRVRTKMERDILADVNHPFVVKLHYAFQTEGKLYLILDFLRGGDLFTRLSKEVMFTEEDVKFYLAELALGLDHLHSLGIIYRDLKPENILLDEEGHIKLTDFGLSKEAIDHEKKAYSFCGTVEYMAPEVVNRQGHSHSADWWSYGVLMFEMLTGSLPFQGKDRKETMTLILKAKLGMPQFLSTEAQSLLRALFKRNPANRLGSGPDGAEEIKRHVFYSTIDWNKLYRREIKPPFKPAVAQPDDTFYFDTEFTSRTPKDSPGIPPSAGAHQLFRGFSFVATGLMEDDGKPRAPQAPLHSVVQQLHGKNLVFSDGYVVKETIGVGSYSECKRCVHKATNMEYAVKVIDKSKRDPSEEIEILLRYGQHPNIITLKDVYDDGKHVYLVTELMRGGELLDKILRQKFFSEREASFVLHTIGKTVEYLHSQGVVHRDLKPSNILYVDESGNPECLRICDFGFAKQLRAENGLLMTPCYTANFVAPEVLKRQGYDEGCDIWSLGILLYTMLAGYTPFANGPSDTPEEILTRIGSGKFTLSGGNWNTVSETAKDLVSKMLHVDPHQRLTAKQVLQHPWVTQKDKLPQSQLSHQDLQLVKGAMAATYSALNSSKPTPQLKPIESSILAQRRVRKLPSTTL
Serine/threonine-protein kinase Sgk1 (Homo sapiens), sequence (O00141 whole entry): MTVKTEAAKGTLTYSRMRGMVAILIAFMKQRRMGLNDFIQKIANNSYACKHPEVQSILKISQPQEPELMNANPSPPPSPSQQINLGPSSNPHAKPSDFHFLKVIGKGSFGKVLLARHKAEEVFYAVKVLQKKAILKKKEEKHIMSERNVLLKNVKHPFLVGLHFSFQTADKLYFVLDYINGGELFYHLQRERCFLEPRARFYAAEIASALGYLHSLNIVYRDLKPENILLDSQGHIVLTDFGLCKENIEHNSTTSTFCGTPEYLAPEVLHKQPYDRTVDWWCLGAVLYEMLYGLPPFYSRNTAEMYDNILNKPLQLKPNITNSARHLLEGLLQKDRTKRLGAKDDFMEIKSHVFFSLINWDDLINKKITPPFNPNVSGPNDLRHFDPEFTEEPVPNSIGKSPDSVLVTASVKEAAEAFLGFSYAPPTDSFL
Dual specificity protein kinase CLK1 (Homo sapiens), sequence (P49759 whole entry, looked up): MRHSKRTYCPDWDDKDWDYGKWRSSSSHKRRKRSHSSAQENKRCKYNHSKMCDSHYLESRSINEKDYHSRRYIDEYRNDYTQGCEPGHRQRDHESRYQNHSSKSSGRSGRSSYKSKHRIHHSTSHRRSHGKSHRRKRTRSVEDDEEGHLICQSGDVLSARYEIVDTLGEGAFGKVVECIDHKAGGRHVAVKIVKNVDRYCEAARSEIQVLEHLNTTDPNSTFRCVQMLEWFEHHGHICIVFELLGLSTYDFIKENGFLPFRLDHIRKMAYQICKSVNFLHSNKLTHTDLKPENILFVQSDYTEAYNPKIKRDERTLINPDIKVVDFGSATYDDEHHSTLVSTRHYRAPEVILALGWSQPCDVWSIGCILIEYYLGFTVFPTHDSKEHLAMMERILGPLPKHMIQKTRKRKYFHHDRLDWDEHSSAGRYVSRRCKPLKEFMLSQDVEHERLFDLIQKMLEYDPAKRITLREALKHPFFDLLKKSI
High affinity nerve growth factor receptor (Homo sapiens), sequence (P04629 33-796 limits assumed): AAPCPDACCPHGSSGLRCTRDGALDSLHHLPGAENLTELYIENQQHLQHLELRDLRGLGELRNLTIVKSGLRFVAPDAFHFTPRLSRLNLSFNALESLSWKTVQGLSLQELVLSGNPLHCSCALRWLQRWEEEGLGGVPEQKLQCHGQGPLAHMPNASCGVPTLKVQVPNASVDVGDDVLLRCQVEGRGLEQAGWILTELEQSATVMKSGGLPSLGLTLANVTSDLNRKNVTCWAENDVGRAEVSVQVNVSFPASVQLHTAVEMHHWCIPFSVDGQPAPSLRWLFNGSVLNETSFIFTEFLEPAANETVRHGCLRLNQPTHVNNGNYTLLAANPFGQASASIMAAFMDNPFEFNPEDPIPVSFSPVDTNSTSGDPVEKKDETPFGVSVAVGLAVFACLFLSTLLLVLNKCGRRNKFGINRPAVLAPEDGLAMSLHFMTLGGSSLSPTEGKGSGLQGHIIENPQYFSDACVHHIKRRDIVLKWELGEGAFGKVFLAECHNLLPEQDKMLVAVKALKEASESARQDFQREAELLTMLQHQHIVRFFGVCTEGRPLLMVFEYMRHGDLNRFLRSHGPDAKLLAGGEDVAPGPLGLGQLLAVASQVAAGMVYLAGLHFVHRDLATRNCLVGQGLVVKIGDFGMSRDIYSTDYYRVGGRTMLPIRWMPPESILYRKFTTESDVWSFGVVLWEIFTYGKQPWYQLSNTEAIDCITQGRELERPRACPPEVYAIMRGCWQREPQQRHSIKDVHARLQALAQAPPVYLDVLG
Cytoplasmic tyrosine-protein kinase BMX (Homo sapiens), sequence (P51813 whole entry): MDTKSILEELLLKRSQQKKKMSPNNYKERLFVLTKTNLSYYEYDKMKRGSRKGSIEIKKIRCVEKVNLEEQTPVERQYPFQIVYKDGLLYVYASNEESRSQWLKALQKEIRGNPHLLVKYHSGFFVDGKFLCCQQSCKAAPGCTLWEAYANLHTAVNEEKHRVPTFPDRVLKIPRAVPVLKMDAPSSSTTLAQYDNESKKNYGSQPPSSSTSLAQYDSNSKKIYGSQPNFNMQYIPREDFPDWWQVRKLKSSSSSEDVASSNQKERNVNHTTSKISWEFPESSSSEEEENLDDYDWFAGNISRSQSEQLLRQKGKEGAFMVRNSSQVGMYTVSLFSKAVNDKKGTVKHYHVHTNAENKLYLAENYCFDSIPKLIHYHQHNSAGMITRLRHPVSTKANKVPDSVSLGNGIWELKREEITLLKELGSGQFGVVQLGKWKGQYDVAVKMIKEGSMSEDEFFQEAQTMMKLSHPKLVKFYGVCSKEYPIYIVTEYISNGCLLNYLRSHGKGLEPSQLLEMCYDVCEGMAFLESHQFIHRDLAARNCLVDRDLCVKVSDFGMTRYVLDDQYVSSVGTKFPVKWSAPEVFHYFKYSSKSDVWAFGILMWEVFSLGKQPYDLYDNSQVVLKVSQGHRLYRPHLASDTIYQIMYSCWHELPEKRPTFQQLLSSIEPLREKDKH
Aurora kinase C (Homo sapiens), sequence (Q9UQB9 whole entry): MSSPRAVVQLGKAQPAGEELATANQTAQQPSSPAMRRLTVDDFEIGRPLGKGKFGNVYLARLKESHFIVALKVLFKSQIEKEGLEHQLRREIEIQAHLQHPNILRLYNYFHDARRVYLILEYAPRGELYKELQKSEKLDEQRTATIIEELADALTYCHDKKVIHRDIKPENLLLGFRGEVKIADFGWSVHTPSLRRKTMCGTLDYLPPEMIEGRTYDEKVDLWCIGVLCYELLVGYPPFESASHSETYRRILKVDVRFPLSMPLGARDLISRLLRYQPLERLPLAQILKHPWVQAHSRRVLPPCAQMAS

- inhibition [1]: 11%
- inhibition [2]: 11%
- inhibition [3]: 13%
- inhibition [4]: 12%
- inhibition [5]: 7%
- inhibition [6]: 11%
- inhibition [7]: 76%
- inhibition [8]: 36%
- inhibition [9]: 16%
- IC50 [10]: > 25000 nM
- inhibition [11]: 29%
- inhibition [12]: 41%
- inhibition [13]: 25%
- inhibition [14]: 2%
- inhibition [15]: 46%
- IC50 [16]: 57 nM
- inhibition [17]: 23%
- inhibition [18]: 18%
- inhibition [19]: 21%
- inhibition [20]: 30%
- inhibition [21]: 17%
- inhibition [22]: 4%
- inhibition [23]: 9%
- inhibition [24]: 23%
- inhibition [25]: 7%
- inhibition [26]: 4%
- inhibition [27]: 43%
- inhibition [28]: 67%
- inhibition [29]: 12%
- inhibition [30]: 78%
Compound: CC(=O)N1CCN(C(=O)Cc2ccc(Nc3ncc(F)c(Nc4ccc(C(=O)Nc5ccccc5Cl)cc4)n3)cc2)CC1

From ChEMBL document CHEMBL1138512, “A class of 2,4-bisanilinopyrimidine Aurora A inhibitors with unusually high selectivity against Aurora B” (J Med Chem, 2009)
